1 compound from patent US20250066864A1, “METHODS FOR IDENTIFYING ADAR1 INHIBITORS, AND COMPOSITIONS AND METHODS OF USE IN TREATING CANCER” (The Wistar Institute of Anatomy and Biology, priority 2021, published 2025) can be followed below.

Assay [1] has as its target T1, ADAR1p110-E912A (Homo sapiens, UniProt P55265, E912A).
T1 sequence (P55265 1-931 isoform P55265-5 E617A): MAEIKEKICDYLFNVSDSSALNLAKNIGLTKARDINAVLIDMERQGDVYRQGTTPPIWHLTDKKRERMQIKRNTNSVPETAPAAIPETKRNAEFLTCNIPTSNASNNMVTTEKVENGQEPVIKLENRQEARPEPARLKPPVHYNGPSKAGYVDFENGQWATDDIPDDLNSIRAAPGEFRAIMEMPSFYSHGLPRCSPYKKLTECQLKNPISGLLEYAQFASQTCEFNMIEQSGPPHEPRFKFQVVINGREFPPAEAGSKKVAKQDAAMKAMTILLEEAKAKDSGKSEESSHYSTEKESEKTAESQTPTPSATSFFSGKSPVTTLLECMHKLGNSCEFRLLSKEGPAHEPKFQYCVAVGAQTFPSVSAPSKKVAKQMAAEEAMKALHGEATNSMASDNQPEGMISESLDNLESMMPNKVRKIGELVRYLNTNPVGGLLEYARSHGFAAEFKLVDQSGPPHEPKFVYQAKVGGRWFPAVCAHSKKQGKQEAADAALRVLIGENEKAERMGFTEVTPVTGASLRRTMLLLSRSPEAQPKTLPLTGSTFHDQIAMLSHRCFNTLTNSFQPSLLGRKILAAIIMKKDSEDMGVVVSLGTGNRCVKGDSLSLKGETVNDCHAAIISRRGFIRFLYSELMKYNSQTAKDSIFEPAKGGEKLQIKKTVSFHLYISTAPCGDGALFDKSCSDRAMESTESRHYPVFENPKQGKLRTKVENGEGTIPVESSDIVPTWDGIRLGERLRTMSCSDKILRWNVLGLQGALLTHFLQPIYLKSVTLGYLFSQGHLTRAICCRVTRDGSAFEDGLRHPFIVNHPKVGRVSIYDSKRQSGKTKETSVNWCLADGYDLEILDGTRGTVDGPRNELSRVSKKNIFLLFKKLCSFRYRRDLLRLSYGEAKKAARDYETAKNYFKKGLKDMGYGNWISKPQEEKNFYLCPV
Kind of assay: surface plasmon resonance (Biacore T200), ADAR1p110-E912A. The assay is classed as binding. Particulars: SPR. The text has this:
We synthesized 2 additional analogs of Compound #13 for preliminary structure activity relationships (SAR), namely, #13-Analog 1 and #13-Analog 2 (Table 3). Compound #13-Analog 1 lacks the 4-cyano moiety and #13-Analog 2 shifts the cyano to the 2-position of the phenyl ring. […] We hypothesized that the cyano-phenyl moiety will coordinate with the zinc atom in the active site when bound to ADAR1. We evaluated the ability of Compound #13 to bind to ADAR1 using surface plasmon resonance (SPR) on the Biacore T200. […] We modeled Compound #13 into the ADAR2 active site (56).
For orientation: SPR reads the build-up and loss of mass on a sensor chip optically.

Assay [2] deals with HeLa cells. Kind of assay: Apo Tox-Glo viability assay, HeLa cells. It is filed as cell-based, human. Here is the method: (§1) HeLa, U2OS, and MRI90 cells were cultured in the presence of ADAR1 inhibitors, 5 μM or 20 μM, for 3 days. Their viability was examined using the Apo Tox-Glo assay system (Promega), which measures plasma membrane penetration of glycyl-phenyl-alanyl-aminofluorocoumarin peptide. Control, 0.3% DMSO. […] Data are mean±S.D. (n=3, biological replicates).
(§2) FIGS. 29A-29D Characterization of Compound #13 effects in cancer cells. […] Viability was examined using the Apo Tox-Glo assay system (Promega). Control, 0.3% DMSO. (FIG. 29B) Western blotting analysis of HeLa cells treated with Compound #13 (10 μM). […] (FIG. 29D) Activation of the IFN signaling pathway. HSC-4 squamous carcinoma cells were treated with Compound #13 at 10 μM (12 hrs). RNA samples were analyzed by qRT-PCR to monitor expression levels of ISGs.

The test system of assay [3] is IMR90 normal fibroblast cells. The assay can be described thus: Apo Tox-Glo viability assay, IMR90 normal fibroblast cells. It is filed as cell-based. The following applies: 5 μM, 3 days. How it is done: as §1, §2

The structures appear in SMILES notation. Entries after “also recorded” stand apart in the source; their conditions may differ.

For `N#Cc1ccc(NC(=O)c2sc3ccccc3c2Cl)cc1` [Compound #13, 3-chloro-N-(4-cyanophenyl)-1-benzothiophene-2-carboxamide], in assay [1], the “binding to mutant ADAR1p110-E912A” value is reported as “did not bind; also recorded: not to mutant E912A”. In assay [2] (5 μM, 3 days), the “viability of HeLa (non-ALT) cells” value is on record as “significantly decreased viability; also recorded: significantly reduced viability”. In addition, the “viability of HeLa non-ALT cancer cells” value in assay [2] (10 μM, FIG. 29A) was “killed selectively; also recorded: selectively reduced viability”. Further, the “viability of MRI90 (normal fibroblast) cells” value in assay [3] is “very little effects”.
